Biological target: TintPBP4 (pheromone binding protein 4)
Test: fluorescence competitive binding assay, displacement of 1-NPN
Design: species or system Tryporyza intacta

| SMILES | Ki |
| --- | --- |
| CCCC/C=C/CCCCCCCCCC=O [compound 1, E11-16: Ald] | 2970 nM |
| CCCC/C=C\CCCCCCCCCC=O [compound 2, Z11-16: Ald] | 2510 nM |

— paper PMC7096405, “Field evaluation of sex pheromones and binding specificity of pheromone binding protein 4 in Tryporyza intacta (Lepidoptera: Crambidae)” (Scientific Reports, 2020)
